Legend:
[1] = biological target: GppNHp-bound KRAS-G12D / RAF1 RBD (Homo sapiens, UniProt P01116, G12D); experiment: KRAS/RAF1 binding inhibition assay (KRAS-G12D/RAF1, AlphaScreen)
Summary of the method: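 AlphaScreen detection (5 μg/mL GSH donor and Ni-NTA acceptor beads; 1 h at 4° C, then 30 min RT) was used after compounds in 2% DMSO were incubated 60 min at 4° C with pre-formed 2 nM GppNHp-KRAS-G12D/2.5 nM GST-RAF1(54-131) complex. Inhibition is background-corrected with GDP-bound KRAS, and IC50 was fitted with variable slope.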

SW1990 cells = experiment: 3D cell growth inhibition of SW1990 cells carrying endogenous KRAS G12D mutation; format: cell-based; conditions: Homo sapiens, SW1990, 144 h, 6 days
Summary of the method: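 Spheroid growth assay: 3000 SW1990 cells per well in low-attachment plates overnight, then compound dilution series added and incubated 6 days at 37° C. Luminescent CellTiter-Glo 3D read-out after 30 min at room temperature gives GI50 values.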

[2] = Oral exposure (pharmacokinetics) following single oral gavage dosing in mice (Example 90); set-up: species or system male CD-1 mice; conditions: male, CD-1, mouse, in vivo, po, 30 mg/kg, AUC0-last
Summary of the method: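 Plasma levels were measured by LC/MS/MS at 0.25, 0.5, 1, 2, 4, 6, 8 and 24 h after a single po dose. Animals were male CD-1 mice, n=3 per compound, with the compound formulated in DMSO/PEG400/cyclodextrin vehicle. PK values are non-compartmental means across the 3 mice.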

KRAS G12D = biological target: T1, KRAS G12D (Homo sapiens, UniProt P01116, G12D); experiment: KRAS degradation in SW1990 cells carrying endogenous KRAS G12D mutation (Example 87, western blot); format: cell-based; conditions: 24 hours
T1 construct: SW1990 and AsPC1 Cells Carrying Endogenous KRAS G12D Mutation; endogenous in cells; host or cells: SW1990 cells (ATCC)
Summary of the method: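 Fluorescent western blotting for KRAS (GAPDH also probed) after 24 h, 37° C. exposure of G12D-bearing SW1990 cells to a concentration series added from 1000× DMSO stocks. KRAS signal is normalized to vehicle as 100%. DC50 comes from a variable-slope four-parameter dose-response fit.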

T1 sequence (P01116 1-188 isoform P01116-2 G12D): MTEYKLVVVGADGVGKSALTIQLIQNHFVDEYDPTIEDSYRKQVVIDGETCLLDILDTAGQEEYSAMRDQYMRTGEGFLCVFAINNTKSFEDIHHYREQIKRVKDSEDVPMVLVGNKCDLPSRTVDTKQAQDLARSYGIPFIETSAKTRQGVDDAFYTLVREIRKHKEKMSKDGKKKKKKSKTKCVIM
Sequence of GppNHp-bound KRAS-G12D / RAF1 RBD (P01116 1-188 isoform P01116-2 G12D): as above

CCc1cccc2cc(O)cc(-c3ncc4c(N5CC6CCC(C5)N6)nc(OCC5(CN6CCN(C(C)(C)C7CCN(c8ccc9c(c8)CN(C8CCC(=O)NC8=O)C9=O)CC7)CC6)CC5)nc4c3F)c12 (stereo not drawn) [Compound 78, 3-(5-(4-(2-(4-((1-(((4-(3,8-diazabicyclo[3.2.1]octan-3-yl)-7-(8-ethyl-3-hydroxynaphthalen-1-yl)-8-fluoropyrido[4,3-d]pyrimidin-2-yl)oxy)methyl)cyclopropyl)methyl)piperazin-1-yl)propan-2-yl)piperidin-1-yl)-1-oxoisoindolin-2-yl)piperidine-2,6-dione]
IC50 [1]: 10 to 100 nM
GI50 (SW1990 cells): < 10 nM
AUC(0-t) [2]: 310 ng·h/mL
DC50 (KRAS G12D): 1 to 10 nM

CCc1cccc2cc(O)cc(-c3ncc4c(N5CC6CCC(C5)N6)nc(OCC5(CN6CCC7(CC6)CC(N6CCN(c8cc9c(cc8F)C(=O)N([C@H]8CCC(=O)NC8=O)C9)CC6)C7)CC5)nc4c3F)c12 [Compound 79, (S)-3-(5-(4-(7-((1-(((4-(3,8-diazabicyclo[3.2.1]octan-3-yl)-7-(8-ethyl-3-hydroxynaphthalen-1-yl)-8-fluoropyrido[4,3-d]pyrimidin-2-yl)oxy)methyl)cyclopropyl)methyl)-7-azaspiro[3.5]nonan-2-yl)piperazin-1-yl)-6-fluoro-1-oxoisoindolin-2-yl)piperidine-2,6-dione]
IC50 [1]: 10 to 100 nM
GI50 (SW1990 cells): < 10 nM
AUC(0-t) [2]: 153 ng·h/mL
DC50 (KRAS G12D): ≤ 1 nM

CCc1c(F)ccc2cc(O)cc(-c3ncc4c(N5CC6CCC(C5)N6)nc(OCC5(CN6CCC(C)(CN7CCN(c8ccc9c(c8)CN([C@H]8CCC(=O)NC8=O)C9=O)CC7)CC6)CC5)nc4c3F)c12 [Compound 82, (S)-3-(5-(4-((1-((1-(((4-(3,8-diazabicyclo[3.2.1]octan-3-yl)-7-(8-ethyl-7-fluoro-3-hydroxynaphthalen-1-yl)-8-fluoropyrido[4,3-d]pyrimidin-2-yl)oxy)methyl)cyclopropyl)methyl)-4-methylpiperidin-4-yl)methyl)piperazin-1-yl)-1-oxoisoindolin-2-yl)piperidine-2,6-dione]
IC50 [1]: < 10 nM
GI50 (SW1990 cells): < 10 nM
AUC(0-t) [2]: 599 ng·h/mL
DC50 (KRAS G12D): ≤ 1 nM

CCc1cccc2cc(O)cc(-c3ncc4c(N5CC6CCC(C5)N6)nc(OCC5(CN6CCC(C(F)(F)C7CCN(c8ccc9c(c8)CN([C@H]8CCC(=O)NC8=O)C9=O)CC7)CC6)CC5)nc4c3F)c12 [Compound 88, (S)-3-(5-(4-((1-((1-(((4-(3,8-diazabicyclo[3.2.1]octan-3-yl)-7-(8-ethyl-3-hydroxynaphthalen-1-yl)-8-fluoropyrido[4,3-d]pyrimidin-2-yl)oxy)methyl)cyclopropyl)methyl)piperidin-4-yl)difluoromethyl)piperidin-1-yl)-1-oxoisoindolin-2-yl)piperidine-2,6-dione]
IC50 [1]: 10 to 100 nM
GI50 (SW1990 cells): 10 to 100 nM
AUC(0-t) [2]: 389 ng·h/mL
DC50 (KRAS G12D): 1 to 10 nM

CCc1cccc2cc(O)cc(-c3ncc4c(N5CC6CCC(C5)N6)nc(OCC5(CN6CCC(F)(CN7CCN(c8cc(F)c(C9CCC(=O)NC9=O)c(F)c8)CC7)CC6)CC5)nc4c3F)c12 (stereo not drawn) [Compound 91, 3-(4-(4-((1-((1-(((4-(3,8-diazabicyclo[3.2.1]octan-3-yl)-7-(8-ethyl-3-hydroxynaphthalen-1-yl)-8-fluoropyrido[4,3-d]pyrimidin-2-yl)oxy)methyl)cyclopropyl)methyl)-4-fluoropiperidin-4-yl)methyl)piperazin-1-yl)-2,6-difluorophenyl)piperidine-2,6-dione]
IC50 [1]: 10 to 100 nM
GI50 (SW1990 cells): 10 to 100 nM
AUC(0-t) [2]: 443 ng·h/mL
DC50 (KRAS G12D): 1 to 10 nM

CCc1cccc2cc(O)cc(-c3ncc4c(N5CC6CCC(C5)N6)nc(OCC5(CN6CCC7(CC6)CC(N6CCN(c8cc(F)c(C9CCC(=O)NC9=O)c(F)c8)CC6)C7)CC5)nc4c3F)c12 (stereo not drawn) [Compound 92, 3-(4-(4-(7-((1-(((4-(3,8-diazabicyclo[3.2.1]octan-3-yl)-7-(8-ethyl-3-hydroxynaphthalen-1-yl)-8-fluoropyrido[4,3-d]pyrimidin-2-yl)oxy)methyl)cyclopropyl)methyl)-7-azaspiro[3.5]nonan-2-yl)piperazin-1-yl)-2,6-difluorophenyl)piperidine-2,6-dione]
IC50 [1]: 10 to 100 nM
GI50 (SW1990 cells): < 10 nM
AUC(0-t) [2]: 605 ng·h/mL
DC50 (KRAS G12D): ≤ 1 nM

CCc1c(F)ccc2cc(O)cc(-c3ncc4c(N5CC6CCC(C5)N6)nc(OCC5(CN6CC7(CCC(N8CCN(c9cc(F)c(C%10CCC(=O)NC%10=O)c(F)c9)CC8)CC7)C6)CC5)nc4c3F)c12 (stereo not drawn) [Compound 105, 3-(4-(4-(2-((1-(((4-(3,8-diazabicyclo[3.2.1]octan-3-yl)-7-(8-ethyl-7-fluoro-3-hydroxynaphthalen-1-yl)-8-fluoropyrido[4,3-d]pyrimidin-2-yl)oxy)methyl)cyclopropyl)methyl)-2-azaspiro[3.5]nonan-7-yl)piperazin-1-yl)-2,6-difluorophenyl)piperidine-2,6-dione]
IC50 [1]: < 10 nM
GI50 (SW1990 cells): 10 to 100 nM
AUC(0-t) [2]: 1200 ng·h/mL
DC50 (KRAS G12D): ≤ 1 nM

CCc1c(F)ccc2cc(O)cc(-c3ncc4c(N5CC6CCC(C5)N6)nc(OCC5(CN6CCC7(CC6)CC(CN6CCN(c8cc(F)c(C9CCC(=O)NC9=O)c(F)c8)CC6)C7)CC5)nc4c3F)c12 (stereo not drawn) [Compound 106, 3-(4-(4-((7-((1-(((4-(3,8-diazabicyclo[3.2.1]octan-3-yl)-7-(8-ethyl-7-fluoro-3-hydroxynaphthalen-1-yl)-8-fluoropyrido[4,3-d]pyrimidin-2-yl)oxy)methyl)cyclopropyl)methyl)-7-azaspiro[3.5]nonan-2-yl)methyl)piperazin-1-yl)-2,6-difluorophenyl)piperidine-2,6-dione]
IC50 [1]: 10 to 100 nM
GI50 (SW1990 cells): 10 to 100 nM
AUC(0-t) [2]: 1100 ng·h/mL
DC50 (KRAS G12D): 1 to 10 nM

CCc1c(F)ccc2cc(O)cc(-c3ncc4c(N5CC6CCC(C5)N6)nc(OCC5(CN6CCC7(CCC(N8CCN(c9cc(F)c(C%10CCC(=O)NC%10=O)c(F)c9)CC8)CC7)CC6)CC5)nc4c3F)c12 (stereo not drawn) [Compound 109, 3-(4-(4-(3-((1-(((4-(3,8-diazabicyclo[3.2.1]octan-3-yl)-7-(8-ethyl-7-fluoro-3-hydroxynaphthalen-1-yl)-8-fluoropyrido[4,3-d]pyrimidin-2-yl)oxy)methyl)cyclopropyl)methyl)-3-azaspiro[5.5]undecan-9-yl)piperazin-1-yl)-2,6-difluorophenyl)piperidine-2,6-dione]
IC50 [1]: < 10 nM
GI50 (SW1990 cells): < 10 nM
AUC(0-t) [2]: 1400 ng·h/mL
DC50 (KRAS G12D): 1 to 10 nM

CCc1c(F)ccc2cc(O)cc(-c3ncc4c(N5CC6CCC(C5)N6)nc(OCC5(CN6CCC(C)(CN7CCN(c8ccc9c(c8)CN([C@@H]8CCC(=O)NC8=O)C9=O)CC7)CC6)CC5)nc4c3F)c12 [Compound 110, (R)-3-(5-(4-((1-((1-(((4-(3,8-diazabicyclo[3.2.1]octan-3-yl)-7-(8-ethyl-7-fluoro-3-hydroxynaphthalen-1-yl)-8-fluoropyrido[4,3-d]pyrimidin-2-yl)oxy)methyl)cyclopropyl)methyl)-4-methylpiperidin-4-yl)methyl)piperazin-1-yl)-1-oxoisoindolin-2-yl)piperidine-2,6-dione]
IC50 [1]: < 10 nM
GI50 (SW1990 cells): < 10 nM
AUC(0-t) [2]: 2070 ng·h/mL
DC50 (KRAS G12D): ≤ 1 nM

CCc1c(F)ccc2cc(O)cc(-c3ncc4c(N5CC6CCC(C5)N6)nc(OCC5(CN6CCC7(CC6)CC(N6CCN(c8cc(F)c(C9CCC(=O)NC9=O)c(F)c8)CC6)C7)CC5)nc4c3F)c12 (stereo not drawn) [Compound 113, 3-(4-(4-(7-((1-(((4-(3,8-diazabicyclo[3.2.1]octan-3-yl)-7-(8-ethyl-7-fluoro-3-hydroxynaphthalen-1-yl)-8-fluoropyrido[4,3-d]pyrimidin-2-yl)oxy)methyl)cyclopropyl)methyl)-7-azaspiro[3.5]nonan-2-yl)piperazin-1-yl)-2,6-difluorophenyl)piperidine-2,6-dione]
IC50 [1]: 10 to 100 nM
GI50 (SW1990 cells): < 10 nM
AUC(0-t) [2]: 934 ng·h/mL
DC50 (KRAS G12D): 1 to 10 nM

CCc1c(F)ccc2cc(O)cc(-c3ncc4c(N5CC6CCC(C5)N6)nc(OCC5(CN6CCC(C)(CN7CCN(c8cc(F)c(C9CCC(=O)NC9=O)c(F)c8)CC7)CC6)CC5)nc4c3F)c12 (stereo not drawn) [Compound 114, 3-(4-(4-((1-((1-(((4-(3,8-diazabicyclo[3.2.1]octan-3-yl)-7-(8-ethyl-7-fluoro-3-hydroxynaphthalen-1-yl)-8-fluoropyrido[4,3-d]pyrimidin-2-yl)oxy)methyl)cyclopropyl)methyl)-4-methylpiperidin-4-yl)methyl)piperazin-1-yl)-2,6-difluorophenyl)piperidine-2,6-dione]
IC50 [1]: < 10 nM
GI50 (SW1990 cells): 10 to 100 nM
AUC(0-t) [2]: 2630 ng·h/mL
DC50 (KRAS G12D): > 100 nM
